Results from ChEMBL document CHEMBL1201862, “PubChem BioAssay data set” (2004).
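Five compound concentrations were applied to cells in 96-well plates for 48 hours; endpoints were derived by simple linear interpolation of the resulting dose-response curve. GI50 marks 50% less growth.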 The source made the active and inactive calls. No stated cut-off is given here; in the data, active = GI50 up to about 1.1 µM and inactive = higher.

Legend:
Assay in all cases: DTP human tumour cell line panel, 48 h
KM12 = test system: KM12
OVCAR-5 = test system: OVCAR-5
CCRF-CEM = test system: CCRF-CEM
TK-10 = test system: TK-10
MDA-N = test system: MDA-N
IGROV-1 = test system: IGROV-1
A498 = test system: A498
SK-MEL-28 = test system: SK-MEL-28
HCT-15 = test system: HCT-15
NCI-H522 = test system: NCI-H522
SF-539 = test system: SF-539
K562 = test system: K562
PC-3 = test system: PC-3
HCT-116 = test system: HCT-116
U-251 = test system: U-251
SR = test system: SR
OVCAR-3 = test system: OVCAR-3
UO-31 = test system: UO-31
SK-MEL-2 = test system: SK-MEL-2
MDA-MB-231 = test system: MDA-MB-231

Row | SMILES | GI50 (KM12) | GI50 (OVCAR-5) | GI50 (CCRF-CEM) | GI50 (TK-10) | GI50 (MDA-N) | GI50 (IGROV-1) | GI50 (A498) | GI50 (SK-MEL-28) | GI50 (HCT-15) [µM] | GI50 (NCI-H522) | GI50 (SF-539) | GI50 (K562) | GI50 (PC-3) | GI50 (HCT-116) | GI50 (U-251) | GI50 (SR) | GI50 (OVCAR-3) | GI50 (UO-31) | GI50 (SK-MEL-2) | GI50 (MDA-MB-231)
1 | CN1C(c2ccccc2)CC(=NOCc2ccccc2)CC1c1ccccc1 (stereo not given) | 21.9 µM (inactive) | 70.8 µM (inactive) | 11.6 µM (inactive) | 46.9 µM (inactive) | 23.3 µM (inactive) | 38.1 µM (inactive) | 44.7 µM (inactive) | 40.8 µM (inactive) | 23.2 | 21.8 µM (inactive) | 36.9 µM (inactive) | 13.8 µM (inactive) | 24.7 µM (inactive) | 18.5 µM (inactive) | 34.1 µM (inactive) | 13.6 µM (inactive) | 29 µM (inactive) | 43.6 µM (inactive) | 57.4 µM (inactive) | 43.7 µM (inactive)
2 | CN(Cc1cc(Br)cc(Br)c1O)Cc1c(O)ccc2ccccc12 | 17.2 µM (inactive) | 17.6 µM (inactive) | 20.7 µM (inactive) | 17.4 µM (inactive) | 16.3 µM (inactive) | 20.2 µM (inactive) | 20 µM (inactive) | 20 µM (inactive) | 30.3 | 26.7 µM (inactive) | 16.1 µM (inactive) | 19.8 µM (inactive) | 16.3 µM (inactive) | 16.7 µM (inactive) | 19.3 µM (inactive) | 20.6 µM (inactive) | 15.2 µM (inactive) | 14.9 µM (inactive) | 17.8 µM (inactive) | 16.7 µM (inactive)
3 | Nc1nc(Cl)c(N)c(NCC2(CO)CC(OCc3ccccc3)C2)n1 (stereo not given) | > 100 µM (inactive) | > 100 µM (inactive) | > 100 µM (inactive) | 44 µM (inactive) | > 100 µM (inactive) | > 100 µM (inactive) | 76.4 µM (inactive) | > 100 µM (inactive) | > 100 | > 100 µM (inactive) | > 100 µM (inactive) | 74.6 µM (inactive) | > 100 µM (inactive) | 44.8 µM (inactive) | > 100 µM (inactive) | 6.5 µM (inactive) | > 100 µM (inactive) | > 100 µM (inactive) | > 100 µM (inactive) | > 100 µM (inactive)
4 | Cc1nc2ccccc2n1Cc1nnc(-c2ccccc2)o1 | 20.6 µM (inactive) | > 100 µM (inactive) | > 100 µM (inactive) | > 100 µM (inactive) | 70.3 µM (inactive) | 72.9 µM (inactive) | > 100 µM (inactive) | > 100 µM (inactive) | > 100 | > 100 µM (inactive) | 27.2 µM (inactive) | 33.9 µM (inactive) | > 100 µM (inactive) | 46.2 µM (inactive) | > 100 µM (inactive) | 43.6 µM (inactive) | > 100 µM (inactive) | > 100 µM (inactive) | > 100 µM (inactive) | > 100 µM (inactive)
5 | O=C1N(c2ccccc2)C(=S)/C(=C/c2ccc(Cl)cc2)N1c1ccc(Cl)cc1 | 52 µM (inactive) | 78.3 µM (inactive) | 18.1 µM (inactive) | 26.7 µM (inactive) | 32.9 µM (inactive) | 41.3 µM (inactive) | 79.8 µM (inactive) | 34.8 µM (inactive) | 26.9 | 15.9 µM (inactive) | 21.1 µM (inactive) | 41.9 µM (inactive) | > 100 µM (inactive) | 20 µM (inactive) | 28.1 µM (inactive) | 0.571 µM (active) | 35.2 µM (inactive) | 28.5 µM (inactive) | 43.7 µM (inactive) | 27 µM (inactive)
6 | COc1c(C)c2c(c(O)c1C/C=C(\C)CCC(=O)O)C(=O)OC2 [MYCOPHENOLIC ACID] | 0.944 µM (active) | 7.05 µM (inactive) | 0.49 µM (active) | 17.4 µM (inactive) | 1.46 µM (inactive) | 1.18 µM (inactive) | > 100 µM (inactive) | 1.91 µM (inactive) | 0.423 | 0.442 µM (active) | 1.46 µM (inactive) | 0.396 µM (active) | 1.1 µM (active) | 0.465 µM (active) | 0.342 µM (active) | 0.446 µM (active) | 2.91 µM (inactive) | 3.1 µM (inactive) | > 51.4 µM (inactive) | 2 µM (inactive)
7 | CC(C)(C)OC(=O)N1CC(COS(C)(=O)=O)c2ccc(O)cc21 (stereo not given) | 2.46 µM (inactive) | 2.12 µM (inactive) | 0.455 µM (active) | 3.37 µM (inactive) | 2.08 µM (inactive) | 2.84 µM (inactive) | 2.18 µM (inactive) | 2.14 µM (inactive) | 2.46 | 1.05 µM (active) | 2.06 µM (inactive) | 2.3 µM (inactive) | 1.73 µM (inactive) | 1.95 µM (inactive) | 2.51 µM (inactive) | 0.703 µM (active) | 2.05 µM (inactive) | 1.97 µM (inactive) | 1.51 µM (inactive) | 2.77 µM (inactive)
